{"source": "patent US9522881B2", "about": "“Hydroxyindole carboxylic acid based inhibitors for oncogenic Src homology-2 domain containing protein tyrosine phosphatase-2 (SHP2)” (Indiana University Research and Technology Corporation, priority 2013, dated 2016)", "target": "SHP2 (Homo sapiens (Human), UniProt Q06124)", "sequence (Q06124 whole entry, looked up)": "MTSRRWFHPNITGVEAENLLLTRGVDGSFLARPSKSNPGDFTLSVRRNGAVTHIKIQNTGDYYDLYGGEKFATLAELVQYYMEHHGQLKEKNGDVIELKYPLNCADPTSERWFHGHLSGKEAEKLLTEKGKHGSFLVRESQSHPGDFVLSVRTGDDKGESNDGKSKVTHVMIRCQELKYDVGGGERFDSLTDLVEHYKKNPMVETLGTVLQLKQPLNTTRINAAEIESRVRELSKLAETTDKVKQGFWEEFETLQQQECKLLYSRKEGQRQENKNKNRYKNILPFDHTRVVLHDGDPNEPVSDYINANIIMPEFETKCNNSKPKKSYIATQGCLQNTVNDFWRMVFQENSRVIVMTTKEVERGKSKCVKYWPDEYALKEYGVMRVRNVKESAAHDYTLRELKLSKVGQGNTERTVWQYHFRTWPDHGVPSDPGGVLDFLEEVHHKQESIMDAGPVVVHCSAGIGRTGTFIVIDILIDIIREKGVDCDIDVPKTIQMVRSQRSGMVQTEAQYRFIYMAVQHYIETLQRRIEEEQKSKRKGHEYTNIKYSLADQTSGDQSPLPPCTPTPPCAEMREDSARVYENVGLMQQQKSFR", "experiment": "SHP2-catalyzed hydrolysis of p-nitrophenyl phosphate (pNPP)", "format": "biochemical", "details": "for IC50: pNPP substrate, pH 7.0, 25° C.", "method": "Libraries 11a-d were screened at ˜5 μM for SHP2 inhibitors without further purification. The ability of the library components to inhibit the SHP2-catalyzed hydrolysis of p-nitrophenyl phosphate (pNPP) was evaluated at pH 7.0 and 25° C. More particularly, the phosphatase activity of SHP2 was assayed using p-nitrophenyl phosphate (pNPP) as a substrate at 25° C. in 50 mM 3,3-dimethylglutarate buffer, pH 7.0, containing 1 mM EDTA with an ionic strength of […] adjusted by NaCl. The libraries were screened in a 96-well format at 5 μM compound concentration. […] The nonenzymatic hydrolysis of pNPP was corrected by measuring the control without the addition of enzyme. The amount of product p-nitrophenol was determined from the absorbance at 405 nm detected by a Spectra MAX340 microplate spectrophotometer (Molecular Devices, Sunnyvale, Calif.) using a molar extinction coefficient of 18,000 M^−1 cm^−1. […] IC50 values for selected resynthesized and purified hits were calculated by fitting the absorbance at 405 nm versus inhibitor concentration to the following equation: AI/A0=IC50/(IC50+[I]) where AI is the absorbance at 405 nm of the sample in the presence of the inhibitor; A0 is the absorbance at 405 nm in the absence of inhibitor; and [I] is the concentration of the inhibitor."}
{"compound": "Cn1c(-c2cccc(NC(=O)C(=O)Nc3nc4ccc(Br)cc4s3)c2)c(I)c2cc(C(=O)O)c(O)cc21", "note": "[11a-4, 2-(3-(2-((6-bromobenzo[d]thiazol-2-yl)amino)-2-oxoacetamido)phenyl)-6-hydroxy-3-iodo-1-methyl-1H-indole-5-carboxylic acid]", "values": [{"measurement": "IC50", "value": "760 ± 110", "unit": "nM"}]}
{"compound": "Cn1c(-c2cccc(NC(=O)C(=O)Nc3ccc(OCc4ccccc4)c(Cl)c3)c2)c(I)c2cc(C(=O)O)c(O)cc21", "note": "[11a-3, 2-(3-(2-((4-(benzyloxy)-3-chlorophenyl)amino)-2-oxoacetamido)phenyl)-6-hydroxy-3-iodo-1-methyl-1H-indole-5-carboxylic acid]", "values": [{"measurement": "SHP2 inhibition, in words", "value": "submicromolar"}, {"measurement": "IC50", "value": "660 ± 30", "unit": "nM"}]}
{"compound": "Cn1c(-c2cccc(NC(=O)CCC(=O)Nc3ccc(OCc4ccccc4)c(Cl)c3)c2)c(I)c2cc(C(=O)O)c(O)cc21", "note": "[11c-3, 2-(3-(4-((4-(benzyloxy)-3-chlorophenyl)amino)-4-oxobutanamido)phenyl)-6-hydroxy-3-iodo-1-methyl-1H-indole-5-carboxylic acid]", "values": [{"measurement": "IC50", "value": "5000 ± 900", "unit": "nM"}]}
{"compound": "Cn1c(-c2cccc(NC(=O)C(=O)Nc3nccs3)c2)c(I)c2cc(C(=O)O)c(O)cc21", "note": "[11a-16, 6-hydroxy-3-iodo-1-methyl-2-(3-(2-oxo-2-(thiazol-2-ylamino)acetamido)phenyl)-1H-indole-5-carboxylic acid]", "values": [{"measurement": "IC50", "value": "2310 ± 280", "unit": "nM"}]}
{"compound": "Cn1c(-c2cccc(NC(=O)C(=O)Nc3ccc(F)cc3)c2)c(I)c2cc(C(=O)O)c(O)cc21", "note": "[11a-15, 2-(3-(2-((4-fluorophenyl)amino)-2-oxoacetamido)phenyl)-6-hydroxy-3-iodo-1-methyl-1H-indole-5-carboxylic acid]", "values": [{"measurement": "IC50", "value": "1840 ± 90", "unit": "nM"}]}
{"compound": "Cn1c(-c2cccc(NC(=O)C(=O)Nc3nnc(-c4ccccc4)s3)c2)c(I)c2cc(C(=O)O)c(O)cc21", "note": "[11a-14, 6-hydroxy-3-iodo-1-methyl-2-(3-(2-oxo-2-((5-phenyl-1,3,4-thiadiazol-2-yl)amino)acetamido)phenyl)-1H-indole-5-carboxylic acid]", "values": [{"measurement": "IC50", "value": "1790 ± 150", "unit": "nM"}]}
{"compound": "Cn1c(-c2cccc(NC(=O)CCC(=O)N3CCc4cc(Br)ccc43)c2)c(I)c2cc(C(=O)O)c(O)cc21", "note": "[11c-6, 2-(3-(4-(5-bromoindolin-1-yl)-4-oxobutanamido)phenyl)-6-hydroxy-3-iodo-1-methyl-1H-indole-5-carboxylic acid]", "values": [{"measurement": "IC50", "value": "7200 ± 900", "unit": "nM"}]}
{"compound": "Cn1c(-c2cccc(NC(=O)CCC(=O)NCc3ccc4c(c3)OCO4)c2)c(I)c2cc(C(=O)O)c(O)cc21", "note": "[11c-9, 2-(3-(4-((benzo[d][1,3]dioxol-5-ylmethyl)amino)-4-oxobutanamido)phenyl)-6-hydroxy-3-iodo-1-methyl-1H-indole-5-carboxylic acid]", "values": [{"measurement": "IC50", "value": "14000 ± 1000", "unit": "nM"}]}
{"compound": "Cn1c(-c2cccc(NC(=O)CCC(=O)Nc3ccc(-c4ccsc4)cc3)c2)c(I)c2cc(C(=O)O)c(O)cc21", "note": "[11c-1, 6-hydroxy-3-iodo-1-methyl-2-(3-(4-oxo-4-((4-(thiophen-3-yl)phenyl)amino)butanamido)phenyl)-1H-indole-5-carboxylic acid]", "values": [{"measurement": "IC50 for SHP2, times higher than that of 11a-1", "value": "more than 10 times"}, {"measurement": "IC50", "value": 2300, "unit": "nM"}]}
{"compound": "Cn1c(-c2cccc(NC(=O)C(=O)Nc3cccc(F)c3)c2)c(I)c2cc(C(=O)O)c(O)cc21", "note": "[11a-19, 2-(3-(2-((3-fluorophenyl)amino)-2-oxoacetamido)phenyl)-6-hydroxy-3-iodo-1-methyl-1H-indole-5-carboxylic acid]", "values": [{"measurement": "IC50", "value": "4660 ± 500", "unit": "nM"}]}
{"compound": "Cn1c(-c2cccc(NC(=O)CCC(=O)Nc3cccc(OCc4ccccc4)c3)c2)c(I)c2cc(C(=O)O)c(O)cc21", "note": "[11c-4, 2-(3-(4-((3-(benzyloxy)phenyl)amino)-4-oxobutanamido)phenyl)-6-hydroxy-3-iodo-1-methyl-1H-indole-5-carboxylic acid]", "values": [{"measurement": "IC50", "value": "4500 ± 1400", "unit": "nM"}]}
{"compound": "Cn1c(-c2cccc(NC(=O)C(=O)Nc3cccc(Br)c3)c2)c(I)c2cc(C(=O)O)c(O)cc21", "note": "[11a-18, 2-(3-(2-((3-bromophenyl)amino)-2-oxoacetamido)phenyl)-6-hydroxy-3-iodo-1-methyl-1H-indole-5-carboxylic acid]", "values": [{"measurement": "IC50", "value": "2730 ± 550", "unit": "nM"}]}
{"compound": "Cn1c(-c2cccc(NC(=O)C(=O)Nc3cccc(-c4ccco4)c3)c2)c(I)c2cc(C(=O)O)c(O)cc21", "note": "[11a-24, 2-(3-(2-((3-(furan-2-yl)phenyl)amino)-2-oxoacetamido)phenyl)-6-hydroxy-3-iodo-1-methyl-1H-indole-5-carboxylic acid]", "values": [{"measurement": "IC50", "value": "380 ± 10", "unit": "nM"}]}
{"compound": "Cn1c(-c2cccc(NC(=O)C(=O)Nc3cccc(-c4ccc(C#N)cc4)c3)c2)c(I)c2cc(C(=O)O)c(O)cc21", "note": "[11a-25, 2-(3-(2-((4′-cyano-[1,1′-biphenyl]-3-yl)amino)-2-oxoacetamido)phenyl)-6-hydroxy-3-iodo-1-methyl-1H-indole-5-carboxylic acid]", "values": [{"measurement": "IC50", "value": "420 ± 20", "unit": "nM"}]}
{"compound": "Cn1c(-c2cccc(NC(=O)CCC(=O)O)c2)c(I)c2cc(C(=O)O)c(O)cc21", "note": "[10c, 2-(3-(3-carboxypropanamido)phenyl)-6-hydroxy-3-iodo-1-methyl-1H-indole-5-carboxylic acid]", "values": [{"measurement": "IC50", "value": 56000, "unit": "nM"}]}
{"compound": "Cn1c(-c2cccc(NC(=O)C(=O)Nc3ccc(-c4cccc(C#N)c4)cc3)c2)c(I)c2cc(C(=O)O)c(O)cc21", "note": "[11a-22, 2-(3-(2-((3′-cyano-[1,1′-biphenyl]-4-yl)amino)-2-oxoacetamido)phenyl)-6-hydroxy-3-iodo-1-methyl-1H-indole-5-carboxylic acid]", "values": [{"measurement": "IC50", "value": "310 ± 20", "unit": "nM"}]}
{"compound": "Cn1c(-c2cccc(NC(=O)C(=O)Nc3cccc(-c4ccccc4)c3)c2)c(I)c2cc(C(=O)O)c(O)cc21", "note": "[11a-5, 2-(3-(2-([1,1′-biphenyl]-3-ylamino)-2-oxoacetamido)phenyl)-6-hydroxy-3-iodo-1-methyl-1H-indole-5-carboxylic acid]", "values": [{"measurement": "SHP2 inhibition, in words", "value": "strongly inhibited"}, {"measurement": "IC50", "value": "770 ± 150", "unit": "nM"}]}
{"compound": "Cn1c(-c2cccc(NC(=O)C(=O)Nc3ccccc3-c3nc4ccccc4[nH]3)c2)c(I)c2cc(C(=O)O)c(O)cc21", "note": "[11a-9, 2-(3-(2-((2-(1H-benzo[d]imidazol-2-yl)phenyl)amino)-2-oxoacetamido)phenyl)-6-hydroxy-3-iodo-1-methyl-1H-indole-5-carboxylic acid]", "values": [{"measurement": "IC50", "value": "1250 ± 60", "unit": "nM"}]}
{"compound": "Cn1c(-c2cccc(NC(=O)CCC(=O)Nc3ccc(Oc4ccccc4)cc3)c2)c(I)c2cc(C(=O)O)c(O)cc21", "note": "[11c-2, 6-hydroxy-3-iodo-1-methyl-2-(3-(4-oxo-4-((4-phenoxyphenyl)amino)butanamido)phenyl)-1H-indole-5-carboxylic acid]", "values": [{"measurement": "IC50", "value": "3600 ± 300", "unit": "nM"}]}
{"compound": "Cn1c(-c2cccc(NC(=O)C(=O)Nc3cccc(I)c3)c2)c(I)c2cc(C(=O)O)c(O)cc21", "note": "[11a-20, 6-hydroxy-3-iodo-2-(3-(2-((3-iodophenyl)amino)-2-oxoacetamido)phenyl)-1-methyl-1H-indole-5-carboxylic acid]", "values": [{"measurement": "IC50", "value": "5420 ± 1010", "unit": "nM"}]}
{"compound": "Cn1c(-c2cccc(NC(=O)C(=O)Nc3cccc(-c4ccsc4)c3)c2)c(I)c2cc(C(=O)O)c(O)cc21", "note": "[11a-26, 6-hydroxy-3-iodo-1-methyl-2-(3-(2-oxo-2-((3-(thiophen-3-yl)phenyl)amino)acetamido)phenyl)-1H-indole-5-carboxylic acid]", "values": [{"measurement": "IC50", "value": "630 ± 40", "unit": "nM"}]}
{"compound": "Cn1c(-c2cccc(NC(=O)C(=O)N3CCc4cc(Br)ccc43)c2)c(I)c2cc(C(=O)O)c(O)cc21", "note": "[11a-7, 2-(3-(2-(5-bromoindolin-1-yl)-2-oxoacetamido)phenyl)-6-hydroxy-3-iodo-1-methyl-1H-indole-5-carboxylic acid]", "values": [{"measurement": "IC50", "value": "1050 ± 90", "unit": "nM"}]}
{"compound": "Cn1c(-c2cccc(NC(=O)C(=O)Nc3ccc(-n4ccnc4)cc3)c2)c(I)c2cc(C(=O)O)c(O)cc21", "note": "[11a-12, 2-(3-(2-((4-(1H-imidazol-1-yl)phenyl)amino)-2-oxoacetamido)phenyl)-6-hydroxy-3-iodo-1-methyl-1H-indole-5-carboxylic acid]", "values": [{"measurement": "IC50", "value": "1490 ± 150", "unit": "nM"}]}
{"compound": "Cn1c(-c2cccc(NC(=O)C(=O)Nc3ccc(-c4ccccc4)cc3)c2)c(I)c2cc(C(=O)O)c(O)cc21", "note": "[11a-2, 2-(3-(2-([1,1′-biphenyl]-4-ylamino)-2-oxoacetamido)phenyl)-6-hydroxy-3-iodo-1-methyl-1H-indole-5-carboxylic acid]", "values": [{"measurement": "SHP2 inhibition, in words", "value": "strongly inhibited"}, {"measurement": "IC50", "value": "620 ± 50", "unit": "nM"}]}
